Our source for the IC50 values is patent US9266878B2, “Phosphatidylinositol 3-kinase inhibitors” (Gilead Calistoga LLC, priority 2012, dated 2016).

Common to all, as to assay: Enzymatic activity of PI3K isoforms, TR-FRET assay (PIP3 formation)
Holding throughout (type): biochemical
(TR-FRET usually uses a lanthanide donor and a delayed reading to cut background.)

The target in one experiment is PI3Kα (Homo sapiens (Human), UniProt P42336). The settings on record: bound given in uM. In short, it runs like this: (§1)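 Heterodimeric recombinant class I PI3K; PIP3 product displaces labeled PIP3 from GRP-1 PH domain, lowering TR-FRET. Reaction 30 min at 25° C, stopped with 10 mM EDTA, 10 nM labeled-PIP3, 35 nM Eu-GRP-1. Read Ex 340 nm, Em 615/665 nm; IC50 in nM.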
Sequence of PI3Kα (P42336 whole entry, the tested form may be a part): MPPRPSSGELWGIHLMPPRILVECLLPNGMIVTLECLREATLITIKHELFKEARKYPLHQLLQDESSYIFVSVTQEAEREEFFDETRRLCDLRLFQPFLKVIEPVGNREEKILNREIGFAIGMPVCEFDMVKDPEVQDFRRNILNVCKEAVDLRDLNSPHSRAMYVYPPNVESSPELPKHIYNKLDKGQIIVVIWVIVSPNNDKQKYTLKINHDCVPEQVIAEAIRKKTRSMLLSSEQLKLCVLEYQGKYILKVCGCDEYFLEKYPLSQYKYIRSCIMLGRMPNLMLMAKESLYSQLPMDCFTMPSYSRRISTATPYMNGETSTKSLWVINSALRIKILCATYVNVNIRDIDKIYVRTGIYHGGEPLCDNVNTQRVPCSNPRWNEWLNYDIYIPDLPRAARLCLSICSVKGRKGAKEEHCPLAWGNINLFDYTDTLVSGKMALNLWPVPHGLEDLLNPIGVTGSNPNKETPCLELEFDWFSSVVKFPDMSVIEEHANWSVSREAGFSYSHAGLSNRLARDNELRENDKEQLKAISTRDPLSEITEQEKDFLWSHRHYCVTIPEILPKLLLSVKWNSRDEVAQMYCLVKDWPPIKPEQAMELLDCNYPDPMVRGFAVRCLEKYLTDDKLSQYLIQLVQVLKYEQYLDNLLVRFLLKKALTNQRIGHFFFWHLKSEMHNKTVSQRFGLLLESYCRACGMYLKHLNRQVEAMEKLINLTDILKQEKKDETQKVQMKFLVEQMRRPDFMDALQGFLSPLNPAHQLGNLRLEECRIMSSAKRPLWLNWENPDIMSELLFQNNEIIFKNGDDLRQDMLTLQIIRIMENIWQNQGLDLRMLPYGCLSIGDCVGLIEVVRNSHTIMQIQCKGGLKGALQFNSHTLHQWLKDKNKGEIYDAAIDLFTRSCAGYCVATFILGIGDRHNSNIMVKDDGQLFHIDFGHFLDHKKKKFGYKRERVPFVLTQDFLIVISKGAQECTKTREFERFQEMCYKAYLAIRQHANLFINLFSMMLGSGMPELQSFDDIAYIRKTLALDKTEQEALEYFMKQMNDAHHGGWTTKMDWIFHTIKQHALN
Sequence of PI3Kα (P27986 whole entry partner, the tested form may be a part): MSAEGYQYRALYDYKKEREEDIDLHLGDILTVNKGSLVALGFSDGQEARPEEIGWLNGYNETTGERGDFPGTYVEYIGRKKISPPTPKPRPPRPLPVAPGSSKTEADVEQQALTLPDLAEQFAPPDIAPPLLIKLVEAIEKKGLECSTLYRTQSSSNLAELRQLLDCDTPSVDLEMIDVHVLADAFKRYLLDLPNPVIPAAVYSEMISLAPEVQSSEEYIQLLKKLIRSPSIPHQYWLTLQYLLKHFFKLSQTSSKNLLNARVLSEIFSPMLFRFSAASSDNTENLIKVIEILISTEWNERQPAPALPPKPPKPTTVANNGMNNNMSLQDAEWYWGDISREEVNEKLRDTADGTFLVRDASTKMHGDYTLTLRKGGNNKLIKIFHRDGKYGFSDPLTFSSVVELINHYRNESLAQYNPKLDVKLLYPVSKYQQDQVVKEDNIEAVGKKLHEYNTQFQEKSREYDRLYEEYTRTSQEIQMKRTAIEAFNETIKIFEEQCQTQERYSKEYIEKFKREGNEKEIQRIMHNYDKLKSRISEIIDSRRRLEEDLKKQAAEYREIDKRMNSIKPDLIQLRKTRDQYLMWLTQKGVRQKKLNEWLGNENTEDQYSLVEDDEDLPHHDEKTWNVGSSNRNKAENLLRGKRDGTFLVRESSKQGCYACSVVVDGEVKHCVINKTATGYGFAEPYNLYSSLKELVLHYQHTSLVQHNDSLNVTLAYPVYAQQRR

The next experiment addresses PI3Kδ (Homo sapiens (Human), UniProt O00329). The following applies: bound given in nM. In short, it runs like this: as §1
In the next experiment the target is PI3Kγ (Homo sapiens (Human), UniProt P48736). The settings on record: bound given in uM. The essentials: (§2)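 Recombinant heterodimeric class I PI3K enzymes were assayed by TR-FRET. PIP3 product displaces fluorescently labelled PIP3 from the GRP-1 PH domain, lowering the signal; IC50 values are given in nM.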
Sequence of PI3Kγ (P48736 whole entry, the tested form may be a part): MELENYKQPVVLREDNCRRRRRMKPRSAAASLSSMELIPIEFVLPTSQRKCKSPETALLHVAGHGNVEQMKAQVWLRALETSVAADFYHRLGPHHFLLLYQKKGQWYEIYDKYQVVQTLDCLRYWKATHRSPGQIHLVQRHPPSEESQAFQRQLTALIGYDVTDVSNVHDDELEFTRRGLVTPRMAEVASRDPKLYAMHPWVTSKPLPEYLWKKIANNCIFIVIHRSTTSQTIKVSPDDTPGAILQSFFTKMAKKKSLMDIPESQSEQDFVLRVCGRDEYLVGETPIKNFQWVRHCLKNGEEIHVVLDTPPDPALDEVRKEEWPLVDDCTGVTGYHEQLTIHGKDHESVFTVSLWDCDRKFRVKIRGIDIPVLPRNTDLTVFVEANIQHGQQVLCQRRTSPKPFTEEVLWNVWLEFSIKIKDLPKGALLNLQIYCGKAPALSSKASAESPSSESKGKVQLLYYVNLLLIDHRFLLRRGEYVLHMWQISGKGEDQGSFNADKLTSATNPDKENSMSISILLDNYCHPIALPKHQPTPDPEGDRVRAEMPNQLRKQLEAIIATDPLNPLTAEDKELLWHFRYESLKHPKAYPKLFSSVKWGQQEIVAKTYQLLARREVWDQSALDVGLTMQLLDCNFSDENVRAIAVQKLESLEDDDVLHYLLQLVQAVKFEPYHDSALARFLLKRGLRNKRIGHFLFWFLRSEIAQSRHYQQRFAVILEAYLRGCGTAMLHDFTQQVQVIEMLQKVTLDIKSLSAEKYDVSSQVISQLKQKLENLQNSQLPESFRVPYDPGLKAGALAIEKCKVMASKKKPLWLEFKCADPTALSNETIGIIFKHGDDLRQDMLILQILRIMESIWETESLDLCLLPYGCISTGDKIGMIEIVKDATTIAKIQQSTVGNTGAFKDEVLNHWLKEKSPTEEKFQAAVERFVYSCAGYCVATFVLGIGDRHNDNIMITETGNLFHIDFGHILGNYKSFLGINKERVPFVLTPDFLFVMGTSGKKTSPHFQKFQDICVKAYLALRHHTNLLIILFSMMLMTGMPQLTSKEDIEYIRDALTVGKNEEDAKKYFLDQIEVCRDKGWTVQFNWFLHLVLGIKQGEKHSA
Sequence of PI3Kγ (Q8WYR1 whole entry partner, the tested form may be a part): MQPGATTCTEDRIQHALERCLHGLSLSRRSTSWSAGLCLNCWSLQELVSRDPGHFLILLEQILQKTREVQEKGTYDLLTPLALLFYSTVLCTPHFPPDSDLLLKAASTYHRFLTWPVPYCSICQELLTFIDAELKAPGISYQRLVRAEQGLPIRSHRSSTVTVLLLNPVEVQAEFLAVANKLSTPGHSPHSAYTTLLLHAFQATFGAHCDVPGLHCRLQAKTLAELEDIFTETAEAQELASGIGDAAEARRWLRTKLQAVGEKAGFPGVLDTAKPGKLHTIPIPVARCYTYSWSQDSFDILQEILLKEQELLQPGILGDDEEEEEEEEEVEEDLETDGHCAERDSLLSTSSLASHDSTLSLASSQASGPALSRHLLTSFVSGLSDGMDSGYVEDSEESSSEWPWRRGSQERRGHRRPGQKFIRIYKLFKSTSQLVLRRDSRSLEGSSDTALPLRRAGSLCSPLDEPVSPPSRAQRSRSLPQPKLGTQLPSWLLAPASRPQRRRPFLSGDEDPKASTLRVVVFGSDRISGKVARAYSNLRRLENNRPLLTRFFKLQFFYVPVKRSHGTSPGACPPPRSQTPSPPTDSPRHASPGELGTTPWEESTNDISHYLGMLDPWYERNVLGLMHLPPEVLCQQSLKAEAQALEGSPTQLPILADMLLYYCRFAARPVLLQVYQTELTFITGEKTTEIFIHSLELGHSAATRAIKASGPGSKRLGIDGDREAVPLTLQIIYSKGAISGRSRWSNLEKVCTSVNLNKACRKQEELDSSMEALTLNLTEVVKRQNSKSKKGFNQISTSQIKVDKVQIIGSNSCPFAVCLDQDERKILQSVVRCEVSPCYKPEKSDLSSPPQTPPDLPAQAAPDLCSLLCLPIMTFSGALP
The target of a further experiment is PI3Kβ (Homo sapiens (Human), UniProt P42338). In short, it runs like this: as §2

Sequence of PI3Kδ (O00329 whole entry, the tested form may be a part): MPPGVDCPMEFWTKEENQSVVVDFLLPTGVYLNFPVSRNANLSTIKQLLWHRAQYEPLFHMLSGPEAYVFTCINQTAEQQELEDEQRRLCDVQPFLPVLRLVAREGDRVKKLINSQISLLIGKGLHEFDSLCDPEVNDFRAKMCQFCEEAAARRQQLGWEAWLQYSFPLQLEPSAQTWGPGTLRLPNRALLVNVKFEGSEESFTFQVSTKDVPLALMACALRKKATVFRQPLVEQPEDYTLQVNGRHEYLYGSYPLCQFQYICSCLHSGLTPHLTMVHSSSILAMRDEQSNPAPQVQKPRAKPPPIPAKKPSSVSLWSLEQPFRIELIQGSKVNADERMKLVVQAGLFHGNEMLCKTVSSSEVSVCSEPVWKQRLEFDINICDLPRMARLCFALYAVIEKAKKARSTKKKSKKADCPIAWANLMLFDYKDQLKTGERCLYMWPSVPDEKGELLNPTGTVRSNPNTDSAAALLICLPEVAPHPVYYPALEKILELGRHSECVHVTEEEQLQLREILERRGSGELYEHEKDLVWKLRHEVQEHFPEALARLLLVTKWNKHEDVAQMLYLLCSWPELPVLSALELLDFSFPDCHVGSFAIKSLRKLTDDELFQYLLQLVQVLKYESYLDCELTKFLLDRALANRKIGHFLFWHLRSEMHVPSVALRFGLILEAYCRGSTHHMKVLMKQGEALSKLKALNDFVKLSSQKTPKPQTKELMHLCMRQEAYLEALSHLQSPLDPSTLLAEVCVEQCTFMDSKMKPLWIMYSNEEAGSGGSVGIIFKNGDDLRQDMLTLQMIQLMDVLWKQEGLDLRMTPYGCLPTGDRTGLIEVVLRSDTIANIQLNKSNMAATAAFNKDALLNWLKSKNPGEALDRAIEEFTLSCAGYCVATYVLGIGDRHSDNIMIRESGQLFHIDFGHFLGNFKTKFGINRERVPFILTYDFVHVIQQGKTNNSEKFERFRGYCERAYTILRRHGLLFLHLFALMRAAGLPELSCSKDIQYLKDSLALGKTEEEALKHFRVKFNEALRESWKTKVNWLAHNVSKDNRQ
Sequence of PI3Kδ (P27986 whole entry partner, the tested form may be a part): as the sequence (P27986 whole entry partner, the tested form may be a part) above

Usually IC50 stands for the concentration that gives 50% inhibition. The low end stands for greater potency in that assay, the high end for weaker potency in that assay. Regarding `C[C@H](Nc1ncnc(N)c1C#Cc1ccc(F)cn1)c1nc2cccc(Cl)c2c(=O)n1N1CCNCC1` [Compound 127a, (S)-2-(1-((6-amino-5-((5-fluoropyridin-2-yl)ethynyl)pyrimidin-4-yl)amino)ethyl)-5-chloro-3-(piperazin-1-yl)quinazolin-4(3H)-one], the IC50 is above 1 µM against PI3Kα, below 100 nM against PI3Kδ, above 1 µM on PI3Kγ and below 100 nM against PI3Kβ (bound given in nM).

In the case of `C[C@H](Nc1ncnc(N)c1C#Cc1cnccn1)c1nc2ccc(F)cc2c(=O)n1-c1cccc(C#N)c1` [Compound 95a, (S)-3-(2-(1-((6-amino-5-(pyrazin-2-ylethynyl)pyrimidin-4-yl)amino)ethyl)-6-fluoro-4-oxoquinazolin-3(4H)-yl)benzonitrile], the half-maximal inhibitory concentration (IC50) against PI3Kα is above 1 µM; against PI3Kδ, below 100 nM; against PI3Kγ it was above 1 µM; at PI3Kβ (bound given in uM) it was above 1000 nM.

On to `Cc1cccc2nc([C@H](C)Nc3ncnc(N)c3C#Cc3ccc(F)cn3)n(-c3cccc(CN(C)S(C)(=O)=O)c3)c(=O)c12` [Compound 128a, (S)—N-(3-(2-(1-((6-amino-5-((5-fluoropyridin-2-yl)ethynyl)pyrimidin-4-yl)amino)ethyl)-5-methyl-4-oxoquinazolin-3(4H)-yl)benzyl)-N-methylmethanesulfonamide], for which the IC50 against PI3Kα was above 1 µM; against PI3Kδ it was below 100 nM; at PI3Kγ, above 1 µM; on PI3Kβ (bound given in uM), above 1000 nM.

As for `C[C@H](Nc1ncnc(N)c1C#Cc1ccc(F)cn1)c1nc2cccc(C(F)F)c2c(=O)n1-c1cc(F)cc(F)c1` [Compound 77a, (S)-2-(1-((6-amino-5-((5-fluoropyridin-2-yl)ethynyl)pyrimidin-4-yl)amino)ethyl)-5-(difluoromethyl)-3-(3,5-difluorophenyl)quinazolin-4(3H)-one], the IC50 against PI3Kα is above 1 µM; on PI3Kδ, below 100 nM; against PI3Kγ it was above 1 µM; on PI3Kβ (bound given in uM) it was above 1000 nM.

Take `C[C@H](Nc1ncnc(N)c1C#Cc1cccnn1)c1nc2cccc(Cl)c2c(=O)n1-c1ccccc1` [Compound 14a, (S)-2-(1-(6-amino-5-(pyridazin-3-ylethynyl)pyrimidin-4-ylamino)ethyl)-5-chloro-3-phenylquinazolin-4(3H)-one]: the results for the IC50 against PI3Kα, against PI3Kγ and against PI3Kβ (bound given in uM) were above 1 µM, above 1 µM and above 1000 nM, respectively.

As to `C[C@H](Nc1ncnc(N)c1C#Cc1ccc(OC(F)(F)F)cc1)c1nc2cccc(Cl)c2c(=O)n1-c1cc(F)cc(F)c1` [Compound 26a, (S)-2-(1-(6-amino-5-((4-(trifluoromethoxy)phenyl)ethynyl)pyrimidin-4-ylamino)ethyl)-5-chloro-3-(3,5-difluorophenyl)quinazolin-4(3H)-one], the IC50 was above 1 µM on PI3Kα, above 1 µM at PI3Kγ and above 1000 nM against PI3Kβ (bound given in uM).

As for `C[C@H](Nc1ncnc(N)c1C#Cc1ccc(F)cn1)c1nc2cccc(Cl)c2c(=O)n1-c1cccc(C(C)(C)C)c1` [Compound 59a, (S)-2-(1-((6-amino-5-((5-fluoropyridin-2-yl)ethynyl)pyrimidin-4-yl)amino)ethyl)-3-(3-(tert-butyl)phenyl)-5-chloroquinazolin-4(3H)-one], the IC50 is above 1 µM at PI3Kα, above 1 µM against PI3Kγ and above 1000 nM against PI3Kβ (bound given in uM).

In the case of `C[C@H](Nc1ncnc(N)c1C#Cc1ccc(F)cn1)c1nc2cccc(Cl)c2c(=O)n1-c1cccc(S(C)(=O)=O)c1` [Compound 58a, (S)-2-(1-((6-amino-5-((5-fluoropyridin-2-yl)ethynyl)pyrimidin-4-yl)amino)ethyl)-5-chloro-3-(3-(methylsulfonyl)phenyl)quinazolin-4(3H)-one], the values for the IC50 against PI3Kα, on PI3Kγ and against PI3Kβ (bound given in uM) were above 1 µM, above 1 µM and above 1000 nM, respectively.
